Tests used:
lambsquarters = assay: Test C postemergence; format: in vivo, Chenopodium album; conditions: Chenopodium album, post-emergence
How it was run: (§1)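 Seeds were sown in loam–sand blend and sprayed preemergence, while plants at 1- to 4-leaf stage (2–18 cm) in peat-based medium received postemergence sprays; test chemicals were formulated in a non-phytotoxic solvent with surfactant. After 13–15 days in a greenhouse, injury was rated visually against controls, 0 (no effect) to 100 (complete control).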

giant foxtail = assay: Test A preemergence; format: in vivo, Setaria faberii; conditions: Setaria faberi, pre-emergence, 240 h
How it was run: (§2)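 Visual injury scored 0–100 (100 = complete control) against untreated controls about 10 days after treatment in a greenhouse. Test chemicals, formulated with surfactant in non-phytotoxic solvent, were sprayed on soil preemergence or on 2-10 cm, one- to two-leaf plants postemergence.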

galium = assay: Test C postemergence; format: in vivo, Galium aparine; conditions: Galium, post-emergence
How it was run: as §1

yellow nutsedge = assay: Test C postemergence; format: in vivo, Cyperus esculentus; conditions: Cyperus, post-emergence
How it was run: as §1

morningglory = assay: Test C postemergence; format: in vivo, Ipomoea coccinea; conditions: Ipomoea, post-emergence
How it was run: as §1

wheat, winter = assay: Test C postemergence; format: in vivo, Triticum aestivum; conditions: Triticum aestivum, post-emergence
How it was run: as §1

barnyardgrass [1] = assay: Test A preemergence; format: in vivo, Echinochloa crus-galli; conditions: Echinochloa crus-galli, pre-emergence, 240 h
How it was run: as §2

chickweed = assay: Test C postemergence; format: in vivo, Stellaria media; conditions: Stellaria media, post-emergence
How it was run: as §1

velvetleaf = assay: Test C postemergence; format: in vivo, Abutilon theophrasti; conditions: Abutilon theophrasti, post-emergence
How it was run: as §1

sedge, umbrella = assay: Test B flooded paddy test; format: in vivo, Cyperus difformis; conditions: Cyperus difformis, Flood, 250 g ai/ha; 0 to 100 scale where 0 is no effect and 100 is complete control; read-out: Plant response rating, Sedge, Umbrella
How it was run: (§3)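 Plants at 2-leaf stage; pots flooded to 3 cm above soil and compound applied directly into paddy water, depth held throughout. After 13 to 15 days in greenhouse, visual rating versus controls on 0 (no effect) to 100 (complete control) scale.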

rice = assay: Test B flooded paddy test; format: in vivo, Oryza sativa; conditions: Oryza sativa; Flood, 250 g ai/ha; 0 to 100 scale where 0 is no effect and 100 is complete control; read-out: Plant response rating, Rice
How it was run: as §3

barnyardgrass [2] = assay: Test B flooded paddy test; format: in vivo, Echinochloa crus-galli; conditions: Echinochloa crus-galli; Flood, 250 g ai/ha; 0 to 100 scale where 0 is no effect and 100 is complete control; read-out: Plant response rating, Barnyardgrass
How it was run: as §3

Heteranthera limosa = assay: Test B flooded paddy test; format: in vivo; conditions: Heteranthera limosa, Flood, 250 g ai/ha; 0 to 100 scale where 0 is no effect and 100 is complete control; read-out: Plant response rating, Ducksalad
How it was run: as §3

wheat = assay: Test A preemergence; format: in vivo, Triticum aestivum
How it was run: as §2

corn = assay: Test A preemergence; format: in vivo, Zea mays; conditions: Zea mays, pre-emergence, 240 h
How it was run: as §2

ragweed = assay: Test C postemergence; format: in vivo, Ambrosia elatior; conditions: Ambrosia artemisiifolia, post-emergence
How it was run: as §1

[3] = 125 g ai/ha, 0 to 100 scale where 0 is no effect and 100 is complete control

In the case of `FC(F)c1cnn(-c2ccccc2Oc2ncc(Cl)cn2)c1` [Compound 80, 5-chloro-2-[2-[4-(difluoromethyl)-1H-pyrazol-1-yl]phenoxy]pyrimidine], the pest or weed control at 125 g/ha (lambsquarters; 125 g ai/ha, postemergence, read-out: Plant response rating (0 to 100), Lambsquarters) is reported as 55%, the pest or weed control at 31 g/ha (lambsquarters; Postemergence, 31 g ai/ha, scale 0 to 100 (0 no effect, 100 complete control), 13 to 15 days, read-out: Plant response rating, Lambsquarters) is reported as 60% and the pest or weed control at 62 g/ha (lambsquarters; Postemergence, 62 g ai/ha, scale 0 to 100 (0 no effect, 100 complete control), read-out: Plant response rating, Lambsquarters) is reported as 55%. The pest or weed control at 125 g/ha (giant foxtail; 125 g ai/ha, 0 to 100 scale where 0 is no effect and 100 is complete control, read-out: Plant response rating, Foxtail, Giant) was 90%, the pest or weed control at 500 g/ha (giant foxtail; 500 g ai/ha, 0 to 100 scale, 0 no effect, 100 complete control, approx. 10 days, read-out: Foxtail, Giant plant response rating) was 100% and the pest or weed control at 16 g/ha (galium; 16 g ai/ha, postemergence, visual rating, scale 0 to 100 (0 no effect, 100 complete control), 13 to 15 days, read-out: Galium plant response rating) was 55%. It also gave a pest or weed control at 125 g/ha (galium; 125 g ai/ha, postemergence, read-out: Plant response rating (0 to 100), Galium) of 95%, a pest or weed control at 31 g/ha (galium; Postemergence, 31 g ai/ha, scale 0 to 100 (0 no effect, 100 complete control), 13 to 15 days, read-out: Plant response rating, Galium) of 70% and a pest or weed control at 62 g/ha (galium; Postemergence, 62 g ai/ha, scale 0 to 100 (0 no effect, 100 complete control), read-out: Plant response rating, Galium) of 85%. For the same compound, the pest or weed control at 125 g/ha (yellow nutsedge; 125 g ai/ha, postemergence, read-out: Plant response rating (0 to 100), Nutsedge, Yellow) was 5%, the pest or weed control at 31 g/ha (yellow nutsedge; Postemergence, 31 g ai/ha, scale 0 to 100 (0 no effect, 100 complete control), 13 to 15 days, read-out: Plant response rating, Nutsedge, Yellow) was 5% and the pest or weed control at 62 g/ha (yellow nutsedge; Postemergence, 62 g ai/ha, scale 0 to 100 (0 no effect, 100 complete control), read-out: Plant response rating, Nutsedge, Yellow) was 5%. The pest or weed control at 125 g/ha (morningglory; 125 g ai/ha, postemergence, read-out: Plant response rating (0 to 100), Morningglory) was 60%, the pest or weed control at 31 g/ha (morningglory; Postemergence, 31 g ai/ha, scale 0 to 100 (0 no effect, 100 complete control), 13 to 15 days, read-out: Plant response rating, Morningglory) was 10% and the pest or weed control at 62 g/ha (morningglory; Postemergence, 62 g ai/ha, scale 0 to 100 (0 no effect, 100 complete control), read-out: Plant response rating, Morningglory) was 60%. For the same compound, the plant injury at 125 g/ha (wheat, winter; 125 g ai/ha, postemergence, read-out: Plant response rating (0 to 100), Wheat) was 30%, the plant injury at 31 g/ha (wheat, winter; Postemergence, 31 g ai/ha, scale 0 to 100 (0 no effect, 100 complete control), 13 to 15 days, read-out: Plant response rating, Wheat) was 0% and the plant injury at 62 g/ha (wheat, winter; Postemergence, 62 g ai/ha, scale 0 to 100 (0 no effect, 100 complete control), read-out: Plant response rating, Wheat) was 5%. The pest or weed control at 125 g/ha (barnyardgrass [1]; 125 g ai/ha, 0 to 100 scale where 0 is no effect and 100 is complete control, read-out: Plant response rating, Barnyardgrass) was 60%, the pest or weed control at 500 g/ha (barnyardgrass [1]; 500 g ai/ha, 0 to 100 scale, 0 no effect, 100 complete control, approx. 10 days, read-out: Barnyardgrass plant response rating) was 100% and the pest or weed control at 16 g/ha (chickweed; 16 g ai/ha, postemergence, visual rating, scale 0 to 100 (0 no effect, 100 complete control), 13 to 15 days, read-out: Chickweed plant response rating) was 50%. It also gave a pest or weed control at 125 g/ha (chickweed; 125 g ai/ha, postemergence, read-out: Plant response rating (0 to 100), Chickweed) of 70%, a pest or weed control at 31 g/ha (chickweed; Postemergence, 31 g ai/ha, scale 0 to 100 (0 no effect, 100 complete control), 13 to 15 days, read-out: Plant response rating, Chickweed) of 60% and a pest or weed control at 62 g/ha (chickweed; Postemergence, 62 g ai/ha, scale 0 to 100 (0 no effect, 100 complete control), read-out: Plant response rating, Chickweed) of 65%. The pest or weed control at 125 g/ha (velvetleaf; 125 g ai/ha, postemergence, read-out: Plant response rating (0 to 100), Velvetleaf) was 75%, the pest or weed control at 31 g/ha (velvetleaf; Postemergence, 31 g ai/ha, scale 0 to 100 (0 no effect, 100 complete control), 13 to 15 days, read-out: Plant response rating, Velvetleaf) was 45% and the pest or weed control at 62 g/ha (velvetleaf; Postemergence, 62 g ai/ha, scale 0 to 100 (0 no effect, 100 complete control), read-out: Plant response rating, Velvetleaf) was 65%. For the same compound, the pest or weed control at 250 g/ha (sedge, umbrella) was 80%, the plant injury at 250 g/ha (rice) was 0% and the pest or weed control at 250 g/ha (barnyardgrass [2]) was 0%. The pest or weed control at 250 g/ha (Heteranthera limosa) was 100%, the “Plant response rating, Wheat” value (wheat; [3]) was 10 and the plant injury at 500 g/ha (wheat; Triticum aestivum, pre-emergence, 240 h, 500 g ai/ha, 0 to 100 scale, 0 no effect, 100 complete control, approx. 10 days, read-out: Wheat plant response rating) was 50%. The Corn plant response rating (crop injury, 0 = no effect, 100 = complete kill) at 125 g/ha (corn; [3]) was 0%, the plant injury at 500 g/ha (corn; 500 g ai/ha, 0 to 100 scale, 0 no effect, 100 complete control, approx. 10 days, read-out: Corn plant response rating) was 40% and the pest or weed control at 125 g/ha (ragweed; 125 g ai/ha, postemergence, read-out: Plant response rating (0 to 100), Ragweed) was 45%. It also gave a pest or weed control at 31 g/ha (ragweed; Postemergence, 31 g ai/ha, scale 0 to 100 (0 no effect, 100 complete control), 13 to 15 days, read-out: Plant response rating, Ragweed) of 40% and a pest or weed control at 62 g/ha (ragweed; Postemergence, 62 g ai/ha, scale 0 to 100 (0 no effect, 100 complete control), read-out: Plant response rating, Ragweed) of 40%.
